Results from article PMC5356007, “A conserved inter-domain communication mechanism regulates the ATPase activity of the AAA-protein Drg1” (Scientific Reports, 2017).
Positions count from the first letter of the chain named. pKd: −log10 of the molar value. Read-outs that look alike come from different tables or passages of the source.

Key:
Drg1 [1] = target: T1, Drg1 (Saccharomyces cerevisiae, UniProt P32794, K563A); assay: differential scanning fluorimetry; assay type: binding
T1 construct: gene AFG2; full-length type II AAA-ATPase, N-terminal GST-tag with PreScission site (plasmids derived from pAZ7), expressed in yeast from CUP1 promoter; Walker A mutants KA1 (K292A) and KA2 (K563A); hexamer in presence of nucleotide
T1 sequence (P32794 1-780 K563A): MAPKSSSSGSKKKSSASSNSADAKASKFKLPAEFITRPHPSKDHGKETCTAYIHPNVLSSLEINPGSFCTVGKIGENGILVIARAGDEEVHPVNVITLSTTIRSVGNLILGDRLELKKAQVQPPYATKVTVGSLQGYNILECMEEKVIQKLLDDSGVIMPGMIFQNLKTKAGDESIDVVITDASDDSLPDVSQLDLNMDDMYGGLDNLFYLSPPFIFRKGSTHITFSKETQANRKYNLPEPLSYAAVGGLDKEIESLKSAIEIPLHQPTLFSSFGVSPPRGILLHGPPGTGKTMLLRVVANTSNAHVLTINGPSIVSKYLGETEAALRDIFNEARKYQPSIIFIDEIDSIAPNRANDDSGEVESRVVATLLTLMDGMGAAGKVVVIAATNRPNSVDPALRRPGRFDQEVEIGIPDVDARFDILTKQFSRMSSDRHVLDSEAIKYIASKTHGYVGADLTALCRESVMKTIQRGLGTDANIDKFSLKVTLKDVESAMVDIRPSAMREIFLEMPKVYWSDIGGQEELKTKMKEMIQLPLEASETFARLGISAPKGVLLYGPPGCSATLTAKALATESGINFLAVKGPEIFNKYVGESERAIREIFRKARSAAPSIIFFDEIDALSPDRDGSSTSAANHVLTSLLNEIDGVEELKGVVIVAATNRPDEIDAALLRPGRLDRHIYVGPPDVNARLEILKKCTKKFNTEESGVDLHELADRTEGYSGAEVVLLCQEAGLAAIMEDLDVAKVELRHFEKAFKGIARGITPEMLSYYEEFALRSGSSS

Drg1 [2] = target: T2, Drg1 (Saccharomyces cerevisiae, UniProt P32794, K292A); assay: differential scanning fluorimetry; assay type: binding; settings: read-out: Kd(ATP)
T2 construct: gene AFG2; full-length type II AAA-ATPase, N-terminal GST-tag with PreScission site (plasmids derived from pAZ7), expressed in yeast from CUP1 promoter; Walker A mutants KA1 (K292A) and KA2 (K563A); hexamer in presence of nucleotide
T2 sequence (P32794 1-780 K292A): T1 sequence (P32794 1-780 K563A) with K292A, A563K

SMILES: Nc1ncnc2c1ncn2[C@@H]1O[C@H](COP(=O)(O)OP(=O)(O)O)[C@@H](O)[C@H]1O [ADP]
- pKd (Drg1 [1]; read-out: Kd(ADP)): ~3.92

SMILES: Nc1ncnc2c1ncn2[C@@H]1O[C@H](COP(=O)(O)OP(=O)(O)OP(=O)(O)O)[C@@H](O)[C@H]1O [ATP]
- pKd (Drg1 [2]): ~4.10
- pKd (Drg1 [1]; read-out: Kd(ATP)): ~4.70
